Assay results reported in patent US6890954B1, “Uses of 2-bromopalmitate in the treatment of autoimmune disease” (priority 1999, dated 2005).

How the values were obtained:
Assay type in all cases: cell-based
Fyn(16)-eGFP = test: Localization of Fyn(16)-eGFP in COS-1 cells (fluorescence microscopy, P100/S100 fractionation)
Experimental: COS-1 cells were transfected with a Fyn(16)-eGFP construct (12) and seeded onto 25-mm glass coverslips 2 days prior to the experiment. Cells were treated overnight with or without 2 bromopalmitate as described above. Plates were washed with PBS and coverslips were mounted onto glass slides in PBS and observed with a 40× and 100×oil immersion lens on a Zeiss Axiophot 2 microscope and photographed with Kodak TMAX 400.
To investigate the effect of 2-bromopalmitate on the intracellular localization of Fyn more precisely, COS-1 cells expressing a Fyn(16)-eGFP construct were examined by immunofluorescence. This construct contains the first 16 amino acids of Fyn fused in frame to eGFP; the chimera is targeted to the plasma membrane and detergent resistant microdomains (12). Cells were cultured with no treatment, with 2-bromopalmitate or with 2-hydroxymyristate, a known myristoylation inhibitor (40,41), as described above, and were examined live by fluorescence microscopy.
Analysis of the subcellular localization of Fyn(16)-eGFP in the presence of 2-bromopalmitate and 2-hydroxymyristate was performed as described above for steady-state Fyn. As depicted in FIG. 2B, in the absence of treatment, 80% of Fyn(16)-eGFP Fyn was membrane bound, whereas in cells treated with 2-bromopalmitate and 2-hydroxymyristate, 65% and 78% of Fyn(16)-eGFP were cytosolic, respectively.

GαO(10)-Fyn = test: Membrane binding of Gαo(10)-Fyn chimera in COS-1 cells; settings: COS-1, 2-bromopalmitate overnight, 5 min label
Experimental: For analysis of newly synthesized Fyn, cells were cultured overnight as descibed above, then starved for 1 hr in DMEM minus methionine and cysteine containing 2% dialyzed FBS, 0.5% defatted BSA with or without 100 μM 2-bromopalmitate. Cells were labeled for 5 minutes with Trans^35S-Label (ICN, Irvine, Calif.), then fractionated as described above. Gels were treated for 20 minutes with 1M salicylic acid prior to drying. The Gαo(10)-Fyn chimera was labeled for 5 min and GAP-43 Fyn chimera was labeled for 2 hours and fractionated according to the above conditions.
Each of these three sequences was appended onto the Fyn protein. Gαo(10)-Fyn and GAP43(10)-Fyn are chimeric constructs with the first 10 amino acids of Gαo or GAP-43, respectively, in place of the first 10 amino acids of wt Fyn. These constructs have been previously described (12,13). In addition, the H-Ras tail was fused to the C-terminus of a non-acylated Fyn mutant (G2A,C3SFyn-HRas). This construct contains full length Fyn with mutations in the N-terminal myristoylation and palmitoylation sites, but with the C-terminus of H-Ras available for prenylation and palmitoylation.

LAT = test: DRM (raft) localization in activated Jurkat cells, sucrose gradient: LAT; settings: 100 μM 3 hours, OKT3 activated, control 71%
Experimental: Isolation of Triton X-100 resistant and soluble fractions was carried out as described previously (12). Isolation of detergent resistant microdomains by sucrose gradients were carried out as follows (19): Jurkat cells (5×10^7) were treated with 2-bromopalmitate, activated with OKT3 mAb as described above, and lysed in 1 ml lysis buffer (25 mM MES pH 6.5, 150 mM NaCl, 0.5% Triton X-100, 1 mM Na3VO4) supplemented with protease inhibitors for 30 minutes at 0° C. After homogenizing 10 times with a loose fit Dounce homogenizer, lysates were mixed with 1 ml 85% sucrose in MBS (25 mM MES pH 6.5, 150 mM NaCl), and overlayered with 6 ml 30% sucrose in MBS, then with 4 ml 5% sucrose in MBS. Following centrifugation for 16 hours at 145,000 g in an SW40 rotor, 1 ml fractions were collected and analyzed by PAGE and immunoblotting with anti-Fyn, anti-LAT, or anti-Lck antibodies.
The ability of 2-bromopalmitate to inhibit localization of palmitoylated proteins to detergent resistant microdomains in activated Jurkat cells was examined next. Cells were either left untreated or treated with 100 μM 2-bromopalmitate for 3 hours, washed, resuspended in serum-free media, and the TCR was activated with OKT3 mAb. Activated cells were extracted with Triton X-100 containing buffer. […] Each fraction was analyzed by immunoblotting with specific antibodies. […]

[1] = test system: T cell receptor signaling; test: TCR-mediated tyrosine phosphorylation in Jurkat T cells (anti-phosphotyrosine immunoblot)
Experimental: Jurkat T cells (2×10^6−1×10^7) were centrifuged at 1,000×g for 5 minutes, rinsed with RPMI, resuspended in RPMI supplemented with 2% dialyzed FBS, 0.5% defatted BSA, and incubated with or without 100 μM 2-bromopalmitate at 8×10^5 cells/ml for 3 hours. The cells were centrifuged, washed with RPMI and resuspended in RPMI at 1×10^7−1×10^8 cells/ml. The cells were then activated with anti-CD3 OKT3 mAb (0.3 mg/ml) for 3 min at 37° C., quickly spun down, washed once with cold RPMI and once with cold STE, and lysed in RIPA Samples were solubilized in 1× sample buffer containing 5% β-mercaptoethanol and subjected to SDS-PAGE, followed by immunoblotting with anti-phosphotyrosine antibody (PY99). For analysis of specific proteins, RIPA lysates were immunoprecipitated with the specific antibodies O/N, and immunoblotted for phosphotyrosine. Alternatively, proteins were immunoprecipitated with agarose-conjugated anti phosphotyrosine antibody and blotted for the specific proteins.
Jurkat cells were incubated with 2-bromopalmitate and activated with OKT3 anti-CD3 antibody. Cell lysates were analyzed by immunoblotting with anti phosphotyrosine antibodies. In control cells, stimulation with OKT3 antibodies induced tyrosine phosphorylation of multiple proteins (Fig 5A). […] The most dramatic effect was on a 36 kDa protein, which represents LAT (see below).

## CCCCCCCCCCCCCCC(Br)C(=O)O (stereo not shown) [2-bromopalmitate]
Fyn(16)-eGFP; COS-1, 100 μM overnight, P100/S100, untreated 80% membrane bound
  Fyn(16)-eGFP cytosolic: 65%
Fyn(16)-eGFP; COS-1 live cells, 100 μM overnight
  Fyn(16)-eGFP distribution by fluorescence microscopy: reduced plasma membrane staining
GαO(10)-Fyn
  inhibition of membrane binding of GαO(10)-Fyn: to the same extent as wt Fyn
LAT
  LAT associated with detergent resistant microdomains: 41%
[1]; 100 μM 3 hours, OKT3 3 min
  OKT3-induced tyrosine phosphorylation of several proteins: significantly inhibited
[1]; FIG. 5B
  reduction of tyrosine phosphorylation on the signaling molecules examined, basal activation taken into account: 70-100%
[1]; unactivated
  tyrosine phosphorylation in the presence of 2-bromopalmitate alone (no stimulation), some proteins: Low to moderate increases
